Test results as given in US20020051978A1, “Methods and compositions for the identification, assessment, prevention and therapy of human cancers” (priority 2000, published 2002).
Structures can show the parent of a compound that is named as a salt. Where two headings read alike, the source gives them in different places.

Experiments:
[1] = test system: 60 cancer cell lines (NCI 60 cancer cell line series); assay: NCI-DTP in vitro cancer screen, sulforhodamine B (SRB) growth inhibition, 48 hour exposure; format: cell-based, human; parameters: key to sensitivity class Ovarian OVCAR-8 CL6005 / sensitivity class Ovarian SK-OV-3 CL6011 / sensitivity class Prostate DU-145 CL11003 / sensitivity class NSCLC NCI-H522 CL1003 / sensitivity class Ovarian IGROV1 CL6010 / sensitivity class Ovarian OVCAR-4 CL6002 / sensitivity class Prostate PC-3(I) CL11001 / sensitivity class Renal A498 CL9013 / sensitivity class Renal SN12C CL9008: sensitivity class: 1 = Low, 2 = Medium, 3 = High
Method in brief: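 Values come from the NCI-DTP screen database: -log GI50, the concentration giving 50% growth inhibition, derived from SRB cell-mass dose-response curves. Each line seeded at its own density, treated day 1 at five ten-fold-spaced doses in duplicate wells, stained after 48 h.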

[2] = test system: 60 cancer cell lines (NCI 60 cancer cell line series); settings: cited from earlier work

CC[C@]1(O)C[C@H]2CN(CCc3c([nH]c4ccccc34)[C@@](C(=O)OC)(c3cc4c(cc3OC)N(C=O)[C@H]3[C@@](O)(C(=O)OC)[C@H](OC(C)=O)[C@]5(CC)C=CCN6CC[C@]43[C@@H]65)C2)C1 [Vincristine sulfate]
2: classification of cell line as Low(1), Medium(2) or High(3) sensitivity to compound ([1]; Breast BT-549 (CL5013)) | classification of cell line as Low(1), Medium(2) or High(3) sensitivity to compound ([1]; Breast HS-578T CL5006) | classification of cell line as Low(1), Medium(2) or High(3) sensitivity to compound ([1]; Breast MCF7(I) (CL5001)) | classification of cell line as Low(1), Medium(2) or High(3) sensitivity to compound ([1]; Breast MCF7/ADRr (CL5002)) | classification of cell line as Low(1), Medium(2) or High(3) sensitivity to compound ([1]; Breast MDA-MB-231 CL5005) | classification of cell line as Low(1), Medium(2) or High(3) sensitivity to compound ([1]; Breast MDA-MB-435 (CL5011)) | classification of cell line as Low(1), Medium(2) or High(3) sensitivity to compound ([1]; Breast T-47D (CL5014)) | classification of cell line as Low(1), Medium(2) or High(3) sensitivity to compound ([1]; CNS SNB-19 (CL12002)) | classification of cell line as Low(1), Medium(2) or High(3) sensitivity to compound ([1]; CNS SNB-75(I) CL12005) | classification of cell line as Low(1), Medium(2) or High(3) sensitivity to compound ([1]; CNS U251(I) CL12009) | classification of cell line as Low(1), Medium(2) or High(3) sensitivity to compound ([1]; Colon COLO-250 CL4010) | classification of cell line as Low(1), Medium(2) or High(3) sensitivity to compound ([1]; Colon HCC-2998 (CL4002)) | classification of cell line as Low(1), Medium(2) or High(3) sensitivity to compound ([1]; Colon HCT-15 CL4015) | classification of cell line as Low(1), Medium(2) or High(3) sensitivity to compound ([1]; Colon HCT-116 (CL4003)) | classification of cell line as Low(1), Medium(2) or High(3) sensitivity to compound ([1]; Melanoma M14 (CL10014)) | classification of cell line as Low(1), Medium(2) or High(3) sensitivity to compound ([1]; Melanoma MALME-3M CL10002) | classification of cell line as Low(1), Medium(2) or High(3) sensitivity to compound ([1]; Melanoma SK-MEL-2 (CL10005)) | classification of cell line as Low(1), Medium(2) or High(3) sensitivity to compound ([1]; Melanoma UACC-62 (CL10020)) | classification of cell line as Low(1), Medium(2) or High(3) sensitivity to compound ([1]; Melanoma UACC-257 (CL10021)) | classification of cell line as Low(1), Medium(2) or High(3) sensitivity to compound ([1]; NSCLC A549/ATCC (CL1004)) | classification of cell line as Low(1), Medium(2) or High(3) sensitivity to compound ([1]; NSCLC HOP-62 (CL1026)) | classification of cell line as Low(1), Medium(2) or High(3) sensitivity to compound ([1]; NSCLC HOP-92 (CL1029)) | classification of cell line as Low(1), Medium(2) or High(3) sensitivity to compound ([1]; NSCLC NCI-H226 CL1013) | sensitivity class NSCLC NCI-H332M CL1017 ([1]; cell line NSCLC NCI-H332M, CL1017) | sensitivity class Ovarian OVCAR-4 CL6002 ([1]; cell line Ovarian OVCAR-4, CL6002) | sensitivity class Ovarian SK-OV-3 CL6011 ([1]; cell line Ovarian SK-OV-3, CL6011) | sensitivity class Prostate DU-145 CL11003 ([1]; cell line Prostate DU-145, CL11003) | sensitivity class Prostate PC-3(I) CL11001 ([1]; cell line Prostate PC-3(I), CL11001) | sensitivity class Renal 786-O CL9018 ([1]; cell line Renal 786-O, CL9018) | sensitivity class Renal ACHN CL9023 ([1]; cell line Renal ACHN, CL9023) | sensitivity class Renal CAKI-1 CL9015 ([1]; cell line Renal CAKI-1, CL9015) | sensitivity class Renal RXF-393 CL9016 ([1]; cell line Renal RXF-393, CL9016) | sensitivity class Renal SN12C CL9008 ([1]; cell line Renal SN12C, CL9008)
6.4: -Log (GI50) ([2]; Prostate DU-145 CL11003)
6.0: -Log (GI50) ([2]; Melanoma SK-MEL-28 (CL10008))
7.0: -Log (GI50) ([2]; CNS SF-295 CL12015) | -Log (GI50) ([2]; CNS SF-539 CL12016) | -Log (GI50) ([2]; Colon HT29(I) CL4001) | -Log (GI50) ([2]; Colon SW-620 (CL4009)) | -Log (GI50) ([2]; Leukemia CCRF-CEM(I) (CL7003)) | -Log (GI50) ([2]; Leukemia HL-60(I) (CL7008)) | -Log (GI50) ([2]; Leukemia K562(I) CL7005) | -Log (GI50) ([2]; Leukemia SR CL7019) | -Log (GI50) ([2]; Melanoma LOX IMVI CL10001) | -Log (GI50) ([2]; Melanoma SK-MEL-5 (CL10007)) | -Log (GI50) ([2]; NSCLC NCI-H23(I) CL1001) | -Log (GI50) ([2]; NSCLC NCI-H460 CL1021) | -Log (GI50) ([2]; Ovarian IGROV1 CL6010) | -Log (GI50) ([2]; Ovarian OVCAR-3 CL6001) | -Log (GI50) ([2]; Ovarian OVCAR-8 CL6005) | -Log (GI50) ([2]; Renal A498 CL9013)
6.5: -Log (GI50) ([2]; Breast HS-578T CL5006)
6.8: -Log (GI50) ([2]; CNS SF-268 CL12014) | -Log (GI50) ([2]; Melanoma UACC-257 (CL10021)) | -Log (GI50) ([2]; NSCLC HOP-62 (CL1026)) | -Log (GI50) ([2]; Renal ACHN CL9023)
6.7: -Log (GI50) ([2]; Breast MDA-MB-435 (CL5011))
6.9: -Log (GI50) ([2]; Breast MCF7(I) (CL5001)) | -Log (GI50) ([2]; CNS SNB-19 (CL12002)) | -Log (GI50) ([2]; CNS U251(I) CL12009) | -Log (GI50) ([2]; Colon COLO-250 CL4010) | -Log (GI50) ([2]; Colon HCC-2998 (CL4002)) | -Log (GI50) ([2]; Colon HCT-15 CL4015) | -Log (GI50) ([2]; Colon HCT-116 (CL4003)) | -Log (GI50) ([2]; Colon KM12 (CL4017)) | -Log (GI50) ([2]; Leukemia MOLT-4 (CL7006)) | -Log (GI50) ([2]; Leukemia RPMI-8226(I) (CL7010)) | -Log (GI50) ([2]; Melanoma M14 (CL10014)) | -Log (GI50) ([2]; Melanoma SK-MEL-2 (CL10005)) | -Log (GI50) ([2]; Melanoma UACC-62 (CL10020)) | -Log (GI50) ([2]; NCSLC NCI-H522 CL1003) | -Log (GI50) ([2]; NSCLC A549/ATCC (CL1004)) | -Log (GI50) ([2]; NSCLC HOP-92 (CL1029)) | -Log (GI50) ([2]; NSCLC NCI-H226 CL1013) | -Log (GI50) ([2]; NSCLC NCI-H332M CL1017) | -Log (GI50) ([2]; Renal 786-O CL9018) | -Log (GI50) ([2]; Renal CAKI-1 CL9015) | -Log (GI50) ([2]; Renal RXF-393 CL9016) | -Log (GI50) ([2]; Renal SN12C CL9008)
4.7: -Log (GI50) ([2]; Ovarian OVCAR-5 CL6003)
5.9: -Log (GI50) ([2]; Breast BT-549 (CL5013))
6.3: -Log (GI50) ([2]; CNS SNB-75(I) CL12005) | -Log (GI50) ([2]; Ovarian OVCAR-4 CL6002)
6.6: -Log (GI50) ([2]; Breast MDA-MB-231 CL5005) | -Log (GI50) ([2]; Breast MDA-N CL5012) | -Log (GI50) ([2]; Melanoma MALME-3M CL10002) | -Log (GI50) ([2]; Ovarian SK-OV-3 CL6011) | -Log (GI50) ([2]; Prostate PC-3(I) CL11001)
1: classification of cell line as Low(1), Medium(2) or High(3) sensitivity to compound ([1]; Breast MDA-N CL5012) | classification of cell line as Low(1), Medium(2) or High(3) sensitivity to compound ([1]; Melanoma SK-MEL-28 (CL10008)) | classification of cell line as Low(1), Medium(2) or High(3) sensitivity to compound ([1]; NSCLC EKVX (CL1008)) | sensitivity class Ovarian OVCAR-5 CL6003 ([1]; cell line Ovarian OVCAR-5, CL6003) | sensitivity class Renal TK10 CL9024 ([1]; cell line Renal TK10, CL9024) | sensitivity class Renal UO-31 CL9004 ([1]; cell line Renal UO-31, CL9004)
6.1: -Log (GI50) ([2]; Breast MCF7/ADRr (CL5002))
3: classification of cell line as Low(1), Medium(2) or High(3) sensitivity to compound ([1]; CNS SF-268 CL12014) | classification of cell line as Low(1), Medium(2) or High(3) sensitivity to compound ([1]; CNS SF-295 CL12015) | classification of cell line as Low(1), Medium(2) or High(3) sensitivity to compound ([1]; CNS SF-539 CL12016) | classification of cell line as Low(1), Medium(2) or High(3) sensitivity to compound ([1]; Colon HT29(I) CL4001) | classification of cell line as Low(1), Medium(2) or High(3) sensitivity to compound ([1]; Colon KM12 (CL4017)) | classification of cell line as Low(1), Medium(2) or High(3) sensitivity to compound ([1]; Colon SW-620 (CL4009)) | classification of cell line as Low(1), Medium(2) or High(3) sensitivity to compound ([1]; Leukemia CCRF-CEM(I) (CL7003)) | classification of cell line as Low(1), Medium(2) or High(3) sensitivity to compound ([1]; Leukemia HL-60(I) (CL7008)) | classification of cell line as Low(1), Medium(2) or High(3) sensitivity to compound ([1]; Leukemia K562(I) CL7005) | classification of cell line as Low(1), Medium(2) or High(3) sensitivity to compound ([1]; Leukemia MOLT-4 (CL7006)) | classification of cell line as Low(1), Medium(2) or High(3) sensitivity to compound ([1]; Leukemia RPMI-8226(I) (CL7010)) | classification of cell line as Low(1), Medium(2) or High(3) sensitivity to compound ([1]; Leukemia SR CL7019) | classification of cell line as Low(1), Medium(2) or High(3) sensitivity to compound ([1]; Melanoma LOX IMVI CL10001) | classification of cell line as Low(1), Medium(2) or High(3) sensitivity to compound ([1]; Melanoma SK-MEL-5 (CL10007)) | sensitivity class NSCLC NCI-H23(I) CL1001 ([1]; cell line NSCLC NCI-H23(I), CL1001) | sensitivity class NSCLC NCI-H460 CL1021 ([1]; cell line NSCLC NCI-H460, CL1021) | sensitivity class NSCLC NCI-H522 CL1003 ([1]; cell line NSCLC NCI-H522, CL1003) | sensitivity class Ovarian IGROV1 CL6010 ([1]; cell line Ovarian IGROV1, CL6010) | sensitivity class Ovarian OVCAR-3 CL6001 ([1]; cell line Ovarian OVCAR-3, CL6001) | sensitivity class Ovarian OVCAR-8 CL6005 ([1]; cell line Ovarian OVCAR-8, CL6005) | sensitivity class Renal A498 CL9013 ([1]; cell line Renal A498, CL9013)
5.7: -Log (GI50) ([2]; NSCLC EKVX (CL1008)) | -Log (GI50) ([2]; Renal TK10 CL9024) | -Log (GI50) ([2]; Renal UO-31 CL9004)
3.8: -Log (GI50) ([2]; Breast T-47D (CL5014))
